According to US4442044A, “Process for preparing monoesters and diesters of N-alkyl substituted amino methyl phosphonic acid” (priority 1983, dated 1984):

Assays:
Assay in all cases: post-emergent herbicidal activity, greenhouse
Assay type in all cases: in vivo
[1] = system: Barnyardgrass
Outline: (§1)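 Seeds or propagules sown in compacted top soil, grown 2–3 weeks in greenhouse, then sprayed with compound solution/suspension containing ~0.4% emulsifier at tabulated rates. Injury scored visually versus untreated controls at ~2 and 4 weeks after treatment, expressed as a herbicidal activity index.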

[2] = system: Canada Thistle; conditions: Table I
Outline: as §1

[3] = system: Cocklebur
Outline: as §1

[4] = system: Crabgrass; conditions: Table II
Outline: as §1

[5] = system: Downy Brome
Outline: as §1

[6] = system: Hemp Sesbania; conditions: Table II
Outline: as §1

[7] = system: Johnsongrass; conditions: Table I
Outline: as §1

[8] = system: Lambsquarters
Outline: as §1

[9] = system: Morningglory
Outline: as §1

[10] = system: Panicum Spp; conditions: Table II
Outline: as §1

[11] = system: Quackgrass; conditions: Table I
Outline: as §1

[12] = system: Rice; conditions: Table II
Outline: as §1

[13] = system: Smartweed
Outline: as §1

[14] = system: Sorghum; conditions: Table II
Outline: as §1

[15] = system: Soybean; conditions: Table II
Outline: as §1

[16] = system: Sugar Beet; conditions: Table II
Outline: as §1

[17] = system: Velvetleaf
Outline: as §1

[18] = system: Wheat; conditions: Table II
Outline: as §1

[19] = system: Wild Buckwheat; conditions: Table II
Outline: as §1

[20] = system: Yellow Nutsedge; conditions: Table I
Outline: as §1

Compound: CCOC(=O)CNCP(=O)(OC(C)CC(=O)OCC)OC(C)CC(=O)OCC (centres unmarked) [Example 15, butanoic acid, 3,3'-[[[[(2-ethoxy-2-oxoethyl]amino]methyl]phospinylidene]bis-(oxy)]bis-, diethyl ester]
- post-emergent herbicidal activity index ([1]; Table I, 2 WAT, 5.6 kg/h): 0 (0-24% control)
- post-emergent herbicidal activity index ([1]; Table I, 4 WAT, 11.2 kg/h): 3 (75-99% control)
- post-emergent herbicidal activity index ([1]; Table II, 2 WAT, 1.12 kg/h): 0 (0-24% control)
- post-emergent herbicidal activity index ([1]; Table II, 4 WAT, 5.6 kg/h): 0 (0-24% control)
- post-emergent herbicidal activity index ([2]; 2 WAT, 5.6 kg/h): 0 (0-24% control)
- post-emergent herbicidal activity index ([2]; 4 WAT, 11.2 kg/h): 0 (0-24% control)
- post-emergent herbicidal activity index ([3]; Table I, 2 WAT, 5.6 kg/h): 0 (0-24% control)
- post-emergent herbicidal activity index ([3]; Table I, 4 WAT, 11.2 kg/h): 1 (25-49% control)
- post-emergent herbicidal activity index ([3]; Table II, 2 WAT, 1.12 kg/h): 0 (0-24% control)
- post-emergent herbicidal activity index ([3]; Table II, 4 WAT, 5.6 kg/h): 0 (0-24% control)
- post-emergent herbicidal activity index ([4]; 2 WAT, 1.12 kg/h): 0 (0-24% control)
- post-emergent herbicidal activity index ([4]; 4 WAT, 5.6 kg/h): 2 (50-74% control)
- post-emergent herbicidal activity index ([5]; Table I, 2 WAT, 5.6 kg/h): 0 (0-24% control)
- post-emergent herbicidal activity index ([5]; Table I, 4 WAT, 11.2 kg/h): 0 (0-24% control)
- post-emergent herbicidal activity index ([5]; Table II, 2 WAT, 1.12 kg/h): 0 (0-24% control)
- post-emergent herbicidal activity index ([5]; Table II, 4 WAT, 5.6 kg/h): 0 (0-24% control)
- post-emergent herbicidal activity index ([6]; 2 WAT, 1.12 kg/h): 0 (0-24% control)
- post-emergent herbicidal activity index ([6]; 4 WAT, 5.6 kg/h): 0 (0-24% control)
- post-emergent herbicidal activity index ([7]; 2 WAT, 5.6 kg/h): 0 (0-24% control)
- post-emergent herbicidal activity index ([7]; 4 WAT, 11.2 kg/h): 0 (0-24% control)
- post-emergent herbicidal activity index ([8]; Table I, 2 WAT, 5.6 kg/h): 0 (0-24% control)
- post-emergent herbicidal activity index ([8]; Table I, 4 WAT, 11.2 kg/h): 0 (0-24% control)
- post-emergent herbicidal activity index ([8]; Table II, 2 WAT, 1.12 kg/h): 0 (0-24% control)
- post-emergent herbicidal activity index ([8]; Table II, 4 WAT, 5.6 kg/h): 1 (25-49% control)
- post-emergent herbicidal activity index ([9]; Table I, 2 WAT, 5.6 kg/h): 0 (0-24% control)
- post-emergent herbicidal activity index ([9]; Table I, 4 WAT, 11.2 kg/h): 1 (25-49% control)
- post-emergent herbicidal activity index ([9]; Table II, 2 WAT, 1.12 kg/h): 0 (0-24% control)
- post-emergent herbicidal activity index ([9]; Table II, 4 WAT, 5.6 kg/h): 1 (25-49% control)
- post-emergent herbicidal activity index ([10]; 2 WAT, 1.12 kg/h): 0 (0-24% control)
- post-emergent herbicidal activity index ([10]; 4 WAT, 5.6 kg/h): 1 (25-49% control)
- post-emergent herbicidal activity index ([11]; 2 WAT, 5.6 kg/h): 0 (0-24% control)
- post-emergent herbicidal activity index ([11]; 4 WAT, 11.2 kg/h): 1 (25-49% control)
- post-emergent herbicidal activity index ([12]; 2 WAT, 1.12 kg/h): 0 (0-24% control)
- post-emergent herbicidal activity index ([12]; 4 WAT, 5.6 kg/h): 0 (0-24% control)
- post-emergent herbicidal activity index ([13]; Table I, 2 WAT, 5.6 kg/h): 0 (0-24% control)
- post-emergent herbicidal activity index ([13]; Table I, 4 WAT, 11.2 kg/h): 0 (0-24% control)
- post-emergent herbicidal activity index ([13]; Table II, 2 WAT, 1.12 kg/h): 0 (0-24% control)
- post-emergent herbicidal activity index ([13]; Table II, 4 WAT, 5.6 kg/h): 0 (0-24% control)
- post-emergent herbicidal activity index ([14]; 2 WAT, 1.12 kg/h): 0 (0-24% control)
- post-emergent herbicidal activity index ([14]; 4 WAT, 5.6 kg/h): 0 (0-24% control)
- post-emergent herbicidal activity index ([15]; 2 WAT, 1.12 kg/h): 0 (0-24% control)
- post-emergent herbicidal activity index ([15]; 4 WAT, 5.6 kg/h): 1 (25-49% control)
- post-emergent herbicidal activity index ([16]; 2 WAT, 1.12 kg/h): 0 (0-24% control)
- post-emergent herbicidal activity index ([16]; 4 WAT, 5.6 kg/h): 0 (0-24% control)
- post-emergent herbicidal activity index ([17]; Table I, 2 WAT, 5.6 kg/h): 0 (0-24% control)
- post-emergent herbicidal activity index ([17]; Table I, 4 WAT, 11.2 kg/h): 0 (0-24% control)
- post-emergent herbicidal activity index ([17]; Table II, 2 WAT, 1.12 kg/h): 0 (0-24% control)
- post-emergent herbicidal activity index ([17]; Table II, 4 WAT, 5.6 kg/h): 0 (0-24% control)
- post-emergent herbicidal activity index ([18]; 2 WAT, 1.12 kg/h): 0 (0-24% control)
- post-emergent herbicidal activity index ([18]; 4 WAT, 5.6 kg/h): 1 (25-49% control)
- post-emergent herbicidal activity index ([19]; 2 WAT, 1.12 kg/h): 0 (0-24% control)
- post-emergent herbicidal activity index ([19]; 4 WAT, 5.6 kg/h): 0 (0-24% control)
- post-emergent herbicidal activity index ([20]; 2 WAT, 5.6 kg/h): 0 (0-24% control)
- post-emergent herbicidal activity index ([20]; 4 WAT, 11.2 kg/h): 1 (25-49% control)

Compound: CCOC(=O)CNCP(=O)(OCC1COC(C)(C)O1)OCC1COC(C)(C)O1 (centres unmarked) [Example 22, glycine, N-[[bis[(2,2-dimethyl-1,3-dioxolan-4-yl)methoxy]phosphinyl]methyl]-, ethyl ester]
- post-emergent herbicidal activity index ([1]; Table I, 4 WAT, 11.2 kg/h): 3 (75-99% control)
- post-emergent herbicidal activity index ([1]; Table I, 4 WAT, 56.0 kg/h): 3 (75-99% control)
- post-emergent herbicidal activity index ([1]; Table II, 2 WAT, 1.12 kg/h): 1 (25-49% control)
- post-emergent herbicidal activity index ([1]; Table II, 4 WAT, 5.6 kg/h): 2 (50-74% control)
- post-emergent herbicidal activity index ([2]; 4 WAT, 11.2 kg/h): 0 (0-24% control)
- post-emergent herbicidal activity index ([2]; 4 WAT, 56.0 kg/h): 2 (50-74% control)
- post-emergent herbicidal activity index ([3]; Table I, 4 WAT, 11.2 kg/h): 0 (0-24% control)
- post-emergent herbicidal activity index ([3]; Table I, 4 WAT, 56.0 kg/h): 2 (50-74% control)
- post-emergent herbicidal activity index ([3]; Table II, 4 WAT, 5.6 kg/h): 0 (0-24% control)
- post-emergent herbicidal activity index ([4]; 2 WAT, 1.12 kg/h): 1 (25-49% control)
- post-emergent herbicidal activity index ([4]; 4 WAT, 5.6 kg/h): 2 (50-74% control)
- post-emergent herbicidal activity index ([5]; Table I, 4 WAT, 11.2 kg/h): 0 (0-24% control)
- post-emergent herbicidal activity index ([5]; Table I, 4 WAT, 56.0 kg/h): 2 (50-74% control)
- post-emergent herbicidal activity index ([5]; Table II, 2 WAT, 1.12 kg/h): 0 (0-24% control)
- post-emergent herbicidal activity index ([5]; Table II, 4 WAT, 5.6 kg/h): 0 (0-24% control)
- post-emergent herbicidal activity index ([6]; 2 WAT, 1.12 kg/h): 2 (50-74% control)
- post-emergent herbicidal activity index ([7]; 4 WAT, 11.2 kg/h): 0 (0-24% control)
- post-emergent herbicidal activity index ([7]; 4 WAT, 56.0 kg/h): 1 (25-49% control)
- post-emergent herbicidal activity index ([8]; Table I, 4 WAT, 11.2 kg/h): 0 (0-24% control)
- post-emergent herbicidal activity index ([8]; Table I, 4 WAT, 56.0 kg/h): 3 (75-99% control)
- post-emergent herbicidal activity index ([8]; Table II, 2 WAT, 1.12 kg/h): 1 (25-49% control)
- post-emergent herbicidal activity index ([8]; Table II, 4 WAT, 5.6 kg/h): 0 (0-24% control)
- post-emergent herbicidal activity index ([9]; Table I, 4 WAT, 11.2 kg/h): 1 (25-49% control)
- post-emergent herbicidal activity index ([9]; Table I, 4 WAT, 56.0 kg/h): 2 (50-74% control)
- post-emergent herbicidal activity index ([9]; Table II, 2 WAT, 1.12 kg/h): 0 (0-24% control)
- post-emergent herbicidal activity index ([9]; Table II, 4 WAT, 5.6 kg/h): 1 (25-49% control)
- post-emergent herbicidal activity index ([10]; 2 WAT, 1.12 kg/h): 0 (0-24% control)
- post-emergent herbicidal activity index ([10]; 4 WAT, 5.6 kg/h): 3 (75-99% control)
- post-emergent herbicidal activity index ([11]; 4 WAT, 11.2 kg/h): 0 (0-24% control)
- post-emergent herbicidal activity index ([11]; 4 WAT, 56.0 kg/h): 3 (75-99% control)
- post-emergent herbicidal activity index ([12]; 2 WAT, 1.12 kg/h): 0 (0-24% control)
- post-emergent herbicidal activity index ([12]; 4 WAT, 5.6 kg/h): 0 (0-24% control)
- post-emergent herbicidal activity index ([13]; Table I, 4 WAT, 11.2 kg/h): 0 (0-24% control)
- post-emergent herbicidal activity index ([13]; Table I, 4 WAT, 56.0 kg/h): 3 (75-99% control)
- post-emergent herbicidal activity index ([14]; 2 WAT, 1.12 kg/h): 0 (0-24% control)
- post-emergent herbicidal activity index ([14]; 4 WAT, 5.6 kg/h): 1 (25-49% control)
- post-emergent herbicidal activity index ([15]; 2 WAT, 1.12 kg/h): 0 (0-24% control)
- post-emergent herbicidal activity index ([15]; 4 WAT, 5.6 kg/h): 0 (0-24% control)
- post-emergent herbicidal activity index ([16]; 2 WAT, 1.12 kg/h): 0 (0-24% control)
- post-emergent herbicidal activity index ([16]; 4 WAT, 5.6 kg/h): 0 (0-24% control)
- post-emergent herbicidal activity index ([17]; Table I, 4 WAT, 11.2 kg/h): 0 (0-24% control)
- post-emergent herbicidal activity index ([17]; Table I, 4 WAT, 56.0 kg/h): 2 (50-74% control)
- post-emergent herbicidal activity index ([17]; Table II, 2 WAT, 1.12 kg/h): 0 (0-24% control)
- post-emergent herbicidal activity index ([17]; Table II, 4 WAT, 5.6 kg/h): 1 (25-49% control)
- post-emergent herbicidal activity index ([18]; 2 WAT, 1.12 kg/h): 0 (0-24% control)
- post-emergent herbicidal activity index ([18]; 4 WAT, 5.6 kg/h): 1 (25-49% control)
- post-emergent herbicidal activity index ([19]; 2 WAT, 1.12 kg/h): 0 (0-24% control)
- post-emergent herbicidal activity index ([19]; 4 WAT, 5.6 kg/h): 2 (50-74% control)
- post-emergent herbicidal activity index ([20]; 4 WAT, 11.2 kg/h): 0 (0-24% control)
- post-emergent herbicidal activity index ([20]; 4 WAT, 56.0 kg/h): 2 (50-74% control)
